Patent US12479850B2, “Compound having Axl and c-Met kinase inhibitory activity, preparation thereof and application thereof” (Shanghai Institute of Materia Medica, Chinese Academy of …, priority 2019, dated 2025)

Target: c-Met kinase domain recombinant protein (Homo sapiens, UniProt P08581)
Assay: ELISA kinase activity assay, c-Met

Chain of c-Met kinase domain recombinant protein (P08581 1078-1345 limits assumed): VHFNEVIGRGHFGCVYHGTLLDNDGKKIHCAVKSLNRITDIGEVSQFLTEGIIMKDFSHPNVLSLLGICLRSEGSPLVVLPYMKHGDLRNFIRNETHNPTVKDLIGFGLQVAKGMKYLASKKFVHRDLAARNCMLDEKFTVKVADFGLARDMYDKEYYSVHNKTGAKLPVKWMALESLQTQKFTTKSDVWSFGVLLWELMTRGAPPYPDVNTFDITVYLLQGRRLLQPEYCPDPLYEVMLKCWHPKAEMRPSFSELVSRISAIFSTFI

SMILES	IC50
Cn1cc(-c2cc(Oc3ccc(NC(=O)c4cn(C)c(=O)n(-c5ccc(F)cc5)c4=O)cc3F)ccn2)cn1 [No. 1, N-(3-fluoro-4-((2-(1-methyl-1H-pyrazol-4-yl)pyridin-4-yl)oxy)phenyl)-3-(4-fluorophenyl)-1-methyl-2,4-dioxo-1,2,3,4-tetrahydropyrimidin-5-carboxamide]	< 10 nM
CCn1cc(C(=O)Nc2ccc(Oc3ccnc(-c4cnn(C)c4)c3)c(F)c2)c(=O)n(-c2ccc(F)cc2)c1=O [No. 2, 1-ethyl-N-(3-fluoro-4-((2-(1-methyl-1H-pyrazol-4-yl)pyridin-4-yl)oxy)phenyl)-3-(4-fluorophenyl)-2,4-dioxo-1,2,3,4-tetrahydropyrimidin-5-formamide]	< 10 nM
CC(C)n1cc(C(=O)Nc2ccc(Oc3ccnc(-c4cnn(C)c4)c3)c(F)c2)c(=O)n(-c2ccc(F)cc2)c1=O [No. 3, N-(3-fluoro-4-((2-(1-methyl-1H-pyrazol-4-yl)pyridin-4-yl)oxy)phenyl)-3-(4-fluorophenyl)-1-isopropyl-2,4-dioxo-1,2,3,4-tetrahydropyrimidin-5-carboxamide]	< 10 nM
CCCn1cc(C(=O)Nc2ccc(Oc3ccnc(-c4cnn(C)c4)c3)c(F)c2)c(=O)n(-c2ccc(F)cc2)c1=O [No. 4, N-(3-fluoro-4-((2-(1-methyl-1H-pyrazol-4-yl)pyridin-4-yl)oxy)phenyl)-3-(4-fluorophenyl)-1-propyl-2,4-dioxo-1,2,3,4-tetrahydropyrimidin-5-carboxamide]	< 10 nM
CC(C)n1cc(C(=O)Nc2ccc(Oc3ccnc(-c4cnn(C)c4)c3)cc2)c(=O)n(-c2ccc(F)cc2)c1=O [No. 25, 3-(4-fluorophenyl)-1-isopropyl-N-(4-((2-(1-methyl-1H-pyrazol-4-yl)pyridin-4-yl)oxy)phenyl)-2,4-dioxo-1,2,3,4-tetrahydropyrimidin-5-carboxamide]	< 10 nM
CC(C)n1cc(C(=O)Nc2ccc(Oc3ccnc(-c4cnn(C)c4)c3)cc2F)c(=O)n(-c2ccc(F)cc2)c1=O [No. 26, N-(2-fluoro-4-((2-(1-methyl-1H-pyrazol-4-yl)pyridin-4-yl)oxy)phenyl)-3-(4-fluorophenyl)-1-isopropyl-2,4-dioxo-1,2,3,4-tetrahydropyrimidin-5-carboxamide]	< 10 nM
CC(C)n1cc(C(=O)Nc2ccc(Oc3ccnc(-c4cnn(C)c4)c3)c(F)c2F)c(=O)n(-c2ccc(F)cc2)c1=O [No. 27, N-(2,3-difluoro-4-((2-(1-methyl-1H-pyrazol-4-yl)pyridin-4-yl)oxy)phenyl)-3-(4-fluorophenyl)-1-isopropyl-2,4-dioxo-1,2,3,4-tetrahydropyrimidin-5-carboxamide]	10 to 100 nM
CC(C)n1cc(C(=O)Nc2cc(F)c(Oc3ccnc(-c4cnn(C)c4)c3)c(F)c2)c(=O)n(-c2ccc(F)cc2)c1=O [No. 28, N-(3,5-difluoro-4-((2-(1-methyl-1H-pyrazol-4-yl)pyridin-4-yl)oxy)phenyl)-3-(4-fluorophenyl)-1-isopropyl-2,4-dioxo-1,2,3,4-tetrahydropyrimidin-5-carboxamide]	< 10 nM
CC(C)n1cc(C(=O)Nc2cc(F)c(Oc3ccnc(-c4cnn(C)c4)c3)cc2F)c(=O)n(-c2ccc(F)cc2)c1=O [No. 29, N-(2,5-difluoro-4-((2-(1-methyl-1H-pyrazol-4-yl)pyridin-4-yl)oxy)phenyl)-3-(4-fluorophenyl)-1-isopropyl-2,4-dioxo-1,2,3,4-tetrahydropyrimidin-5-carboxamide]	< 10 nM
CC(C)n1cc(C(=O)Nc2ccc(Oc3ccnc(-c4cn[nH]c4)c3)c(F)c2)c(=O)n(-c2ccc(F)cc2)c1=O [No. 31, N-(4-((2-(1H-pyrazol-4-yl)pyridin-4-yl)oxy)-3-fluorophenyl)-3-(4-fluorophenyl)-1-isopropyl-2,4-dioxo-1,2,3,4-tetrahydropyrimidin-5-carboxamide]	10 to 100 nM
CC(C)n1cc(C(=O)Nc2ccc(Oc3ccnc(-c4cnn(CC(C)(C)O)c4)c3)c(F)c2)c(=O)n(-c2ccc(F)cc2)c1=O [No. 32, N-(3-fluoro-4-((2-(1-(2-hydroxy-2-methylpropyl)-1H-pyrazol-4-yl)pyridin-4-yl)oxy)phenyl)-3-(4-fluorophenyl)-1-isopropyl-2,4-dioxo-1,2,3,4-tetrahydropyrimidin-5-carboxamide]	10 to 100 nM
CC(C)n1cc(C(=O)Nc2ccc(Oc3ccnc(-c4cnn(C5CC5)c4)c3)c(F)c2)c(=O)n(-c2ccc(F)cc2)c1=O [No. 33, N-(4-((2-(1-cyclopropyl-1H-pyrazol-4-yl)pyridin-4-yl)oxy)-3-fluorophenyl)-3-(4-fluorophenyl)-1-isopropyl-2,4-dioxo-1,2,3,4-tetrahydropyrimidin-5-carboxamide]	10 to 100 nM
CC(C)n1cc(C(=O)Nc2ccc(Oc3ccnc(-c4cnn(CCN5CCN(C)CC5)c4)c3)c(F)c2)c(=O)n(-c2ccc(F)cc2)c1=O [No. 34, N-(3-fluoro-4-((2-(1-(2-(4-methylpiperazin-1-yl)ethyl)-1H-pyrazol-4-yl)pyridin-4-yl)oxy)phenyl)-3-(4-fluorophenyl)-1-isopropyl-2,4-dioxo-1,2,3,4-tetrahydropyrimidin-5-carboxamide]	10 to 100 nM

Other lines, results leading:

IC50	SMILES
10 to 100 nM	Cc1nn(C)cc1-c1cc(Oc2ccc(NC(=O)c3cn(C(C)C)c(=O)n(-c4ccc(F)cc4)c3=O)cc2F)ccn1 [No. 35, N-(4-((2-(1,3-dimethyl-1H-pyrazol-4-yl)pyridin-4-yl)oxy)-3-fluorophenyl)-3-(4-fluorophenyl)-1-isopropyl-2,4-dioxo-1,2,3,4-tetrahydropyrimidin-5-carboxamide]
10 to 100 nM	CC(C)n1cc(C(=O)Nc2ccc(Oc3ccncc3-c3cnn(C)c3)cc2)c(=O)n(-c2ccc(F)cc2)c1=O [No. 36, 3-(4-fluorophenyl)-1-isopropyl-N-(4-((3-(1-methyl-1H-pyrazol-4-yl)pyridin-4-yl)oxy)phenyl)-2,4-dioxo-1,2,3,4-tetrahydropyrimidin-5-carboxamide]
10 to 100 nM	CCn1cc(C(=O)Nc2ccc(Oc3ccncc3-c3cnn(C)c3)cc2)c(=O)n(-c2ccc(F)cc2)c1=O [No. 52, 3-(4-fluorophenyl)-1-ethyl-N-(4-((3-(1-methyl-1H-pyrazol-4-yl)pyridin-4-yl)oxy)phenyl)-2,4-dioxo-1,2,3,4-tetrahydropyrimidin-5-carboxamide]
> 100 nM	Cn1cc(-c2cnccc2Oc2ccc(NC(=O)c3cn(C)c(=O)n(-c4ccc(F)cc4)c3=O)cc2)cn1 [No. 53, 3-(4-fluorophenyl)-1-methyl-N-(4-((3-(1-methyl-1H-pyrazol-4-yl)pyridin-4-yl)oxy)phenyl)-2,4-dioxo-1,2,3,4-tetrahydropyrimidin-5-carboxamide]
10 to 100 nM	Cn1cc(-c2cnccc2Oc2ccc(NC(=O)c3cn(CC4CCOCC4)c(=O)n(-c4ccc(F)cc4)c3=O)cc2)cn1 [No. 54, 3-(4-fluorophenyl)-N-(4-((3-(1-methyl-1H-pyrazol-4-yl)pyridin-4-yl)oxy)phenyl)-2,4-dioxo-1-((tetrahydro-2H-pyran-4-yl)methyl)-1,2,3,4-tetrahydropyrimidin-5-carboxamide]

Target: T1, Axl kinase domain recombinant protein (Homo sapiens, UniProt P30530)
T1 sequence (P30530 536-807 limits assumed): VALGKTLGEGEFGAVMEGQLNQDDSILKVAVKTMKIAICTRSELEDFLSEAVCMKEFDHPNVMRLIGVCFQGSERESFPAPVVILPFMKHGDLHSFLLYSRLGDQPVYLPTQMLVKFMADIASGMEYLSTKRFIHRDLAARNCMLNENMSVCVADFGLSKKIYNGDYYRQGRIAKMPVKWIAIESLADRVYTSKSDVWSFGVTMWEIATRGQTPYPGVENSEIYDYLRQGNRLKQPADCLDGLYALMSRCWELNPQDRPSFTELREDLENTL
Assay: ELISA kinase activity assay, Axl

IC50	SMILES
< 10 nM	Cn1cc(-c2cc(Oc3ccc(NC(=O)c4cn(C)c(=O)n(-c5ccc(F)cc5)c4=O)cc3F)ccn2)cn1 [No. 1, N-(3-fluoro-4-((2-(1-methyl-1H-pyrazol-4-yl)pyridin-4-yl)oxy)phenyl)-3-(4-fluorophenyl)-1-methyl-2,4-dioxo-1,2,3,4-tetrahydropyrimidin-5-carboxamide]
< 10 nM	CCn1cc(C(=O)Nc2ccc(Oc3ccnc(-c4cnn(C)c4)c3)c(F)c2)c(=O)n(-c2ccc(F)cc2)c1=O [No. 2, 1-ethyl-N-(3-fluoro-4-((2-(1-methyl-1H-pyrazol-4-yl)pyridin-4-yl)oxy)phenyl)-3-(4-fluorophenyl)-2,4-dioxo-1,2,3,4-tetrahydropyrimidin-5-formamide]
< 10 nM	CCCn1cc(C(=O)Nc2ccc(Oc3ccnc(-c4cnn(C)c4)c3)c(F)c2)c(=O)n(-c2ccc(F)cc2)c1=O [No. 4, N-(3-fluoro-4-((2-(1-methyl-1H-pyrazol-4-yl)pyridin-4-yl)oxy)phenyl)-3-(4-fluorophenyl)-1-propyl-2,4-dioxo-1,2,3,4-tetrahydropyrimidin-5-carboxamide]
> 100 nM	COc1cc(NC(=O)c2cn(C(C)C)c(=O)n(-c3ccc(F)cc3)c2=O)ccc1Oc1ccnc(-c2cnn(C)c2)c1 [No. 58, 3-(4-fluorophenyl)-1-isopropyl-N-(3-methoxy-4-((2-(1-methyl-1H-pyrazol-4-yl)pyridin-4-yl)oxy)phenyl)-2,4-dioxo-1,2,3,4-tetrahydropyrimidin-5-carboxamide]
